# Legend:
# Panc-1 cancers [1] = assay: Experiment 1: Panc-1 tumor growth in nude mice; format: in vivo, human (xenograft in nude mice); details: AN-152 6.9 μmol/kg, DOX 2.5 μmol/kg
# Protocol: (§1) Control and treatment groups were then selected at random.
# (§2) In Experiment 1, nude mice with Panc-1 tumors were treated iv. on days 1, 8. […] There were 8 animals in each group. The experiment was terminated on day 82.
# SW-1990 cancers = assay: Experiment 2: SW-1990 tumor growth in nude mice; format: in vivo, human (xenograft in nude mice); details: for Tumor volume (final): control 3464±838; for Tumor volume (final) / Tumor weights, solid tumor part: AN-152 and DOX P<0.05 vs. control; for Tumor weights, tumors with cysts: control 3729±921, AN-152 P<0.05 vs. control; for Tumor weights, solid tumor part: cut, fluid released, control 2473±636
# Protocol: as §1
# All compounds were administered iv.(at 6.9 μmol/kg) once weekly for 7 weeks. There were 10 animals per group. The experiment was terminated 65 days after the first treatment.
# [2] = Experiment 1: body and organ weights of mice; format: in vivo; details: Experiment 1, nude mice with Panc-1; AN-152 6.9 μmol/kg, DOX 2.5 μmol/kg iv
# Protocol: as §1, §2
# [3] = Experiment 3: body and organ weights of mice; format: in vivo; details: Experiment 3, nude mice with CFPAC-1; iv
# Description: as §1
# Panc-1 cancers [4] = assay: Human Cancer Pathway Finder PCR Array, Panc-1 tumors; format: in vivo, human (xenograft in nude mice)
# Description: (§3) After isolating total RNA and protein from tumor samples from experiments 2, 3 and 4 by using the NucleoSpin kit (Macherey-Nagel, Bethlehem, PA, USA), the Human Cancer Pathway Finder Superarray and the Human Apoptosis RT Profiler PCR Array (Qiagen Inc. Valencia, CA, USA) were used to analyze 3 representative samples from each group for mRNA levels of genes related to cell adhesion, apoptosis, cell cycle, angiogenesis, signal transduction, invasion and metastasis. Quality control of RNA samples, synthesis of cDNA and RT-PCR arrays were performed as described. Gene expression data were examined using Excel based PCR Array Data Analysis Software provided by Qiagen; fold-changes in gene expression were calculated using the ΔΔCt method and five housekeeping genes (B2M, HPRT1, RPL13A, GAPDH, and ACTB) were used for normalization of the results.
# SW-1990 tumors [5] = assay: Human Cancer Pathway Finder PCR Array, SW-1990 tumors; format: in vivo, human (xenograft in nude mice)
# Description: as §3
# CFPAC-1 cancers [6] = assay: Human Cancer Pathway Finder PCR Array, CFPAC-1 tumors; format: in vivo, human (xenograft in nude mice)
# Description: as §3
# [7] = tested on: three tumor lines (Panc-1, SW-1990, CFPAC-1); assay: Human Cancer Pathway Finder PCR Array, three tumor lines together; format: in vivo, human (xenograft in nude mice)
# Description: as §3
# Panc-1 cancers [8] = assay: Human Apoptosis RT Profiler PCR Array, Panc-1; format: in vivo, human (xenograft in nude mice)
# Description: as §3
# SW-1990 tumors [9] = assay: Human Apoptosis RT Profiler PCR Array, SW-1990; format: in vivo, human (xenograft in nude mice)
# Description: as §3
# CFPAC-1 cancers [10] = assay: Human Apoptosis RT Profiler PCR Array, CFPAC-1; format: in vivo, human (xenograft in nude mice)
# Description: as §3
# CFPAC-1 cancers [11] = assay: Experiment 3: CFPAC-1 tumor growth in nude mice
# Protocol: Chemicals, unless stated otherwise, were purchased from Sigma (St. Louis, MO).
# Female athymic nude mice (Ncr nu/nu) were obtained from the National Cancer Institute (Frederick Cancer Research and Development Center, Frederick, MD), Charles River Laboratories International, Inc. (Durham, NC) and Harlan Laboratories (Tampa, FL) and maintained under pathogen-limited conditions. […] To produce tumor donor animals, 10^6 cells of each line were injected subcutaneously into 3 nude mice and grown until well-developed tumors were grown. The resulting tumors were removed, minced and 2 mm^3 pieces of tumor tissue were transplanted subcutaneously into each flank area of the experimental nude mice. When the tumors became measurable, the mice were divided into groups with nearly equal average tumor sizes. Control and treatment groups were then selected at random.
# The compounds were given iv. on days 1, 5, 8, 12, 15 and 30. There were 8 animals per group, and the experiment lasted to the 61st day of the treatment period.
# One-way ANOVA (Sigmaplot-11 software; Jandel Scientific, San Raphael, CA) was used for statistical evaluation of the data, and the groups were compared using Dunnett's method.
# [12] = tested on: advanced pancreatic cancers; details: cited from earlier work
# Description: Pancreatic carcinoma is the 9th most common human cancer in the Western world, including the USA, but it is the fourth leading cause of cancer death in both males and females. Its incidence has increased in the white population by about 1% per year between 1999 through 2008. Ductal carcinomas of the pancreas are very aggressive tumors, and because of the concealed location of the gland, they are mostly detected in late stages of development when surgical removal is not useful. Thus, the 5-year survival rate is below 5% and the median survival time after diagnosis is less than 6 mo ...
# [13] = tested on: nitrosamine-induced pancreatic cancers; details: hamsters; cited from earlier work
# Description: Receptors for various peptide hormones are present in pancreatic cancers and these receptors can be utilized for both diagnostic and therapeutic purposes.. […] [15, 21] however, their function and importance is still unclear. The combined detection of mRNA for both LH-RH and LH-RH receptor in rat pancreatic cancer lines raised the possibility of an autocrine/paracrine role of LH-RH in these tumors. The findings that both estrogen and androgen receptors are likewise expressed in pancreati ...
# [14] = tested on: binding sites for LH-RH in nitrosamine-induced pancreatic cancers in hamsters; design: method as in PMID 15350601; details: cited from earlier work
# [15] = SW-1990, 6.9 μmol/kg iv once weekly for 7 weeks, 10 animals/group, day 65, means ± SE
molecule,measurement,setting,value
"COc1cccc2c1C(=O)c1c(O)c3c(c(O)c1C2=O)C[C@@](O)(C(=O)CO)C[C@@H]3O[C@H]1C[C@H](N)[C@H](O)[C@H](C)O1 [DOX, doxorubicin]",Tumor volume (final),"Panc-1 cancers [1]; Panc-1, iv days 1, 8, 15, 22, 33, 61, 8 animals/group, day 82, means ± SE, control 2040±1357, AN-152 P<0.05 vs. control",849±363 mm3
same,Growth inhibition (in words),"Panc-1 cancers [1]; Panc-1 in nude mice, iv",only a moderate but not significant inhibitory effect
same,Solid tumor weights (in words),"SW-1990 cancers; SW-1990, 6.9 μmol/kg iv once weekly for 7 weeks",reduced
same,Tumor volume (final),SW-1990 cancers; [15],1213±381a mm3
same,"Tumor weights, tumors with cysts",SW-1990 cancers; [15],1496 ± 466 mg
same,"Tumor weights, solid tumor part",SW-1990 cancers; [15],585 ± 141 mg
same,Growth inhibition (in words),SW-1990 cancers; SW-1990 in nude mice,inhibitory effect on growth
same,Effect on body and organ weights,[2],Neither treatment had an effect on body and organ weights of the mice
same,Body weights,[3],"the lowest in the group receiving DOX, but the differences from control were statistically not significant"
same,Ovarian weights,[3],reduced
same,Expression of cell cycle control and DNA damage repair genes,Panc-1 cancers [4],altered in both directions
same,Expression of genes associated with adhesion,Panc-1 cancers [4]; treated vs control tumors,decreased
same,Expression of cell cycle control and DNA damage repair genes,SW-1990 tumors [5],altered in both directions
same,Expression of genes associated with adhesion,SW-1990 tumors [5]; treated vs control tumors,changed in both directions
same,Expression of cell cycle control and DNA damage repair genes,CFPAC-1 cancers [6],only decreases
same,Expression of genes associated with adhesion,CFPAC-1 cancers [6]; treated vs control tumors,decreased
same,Expression of genes related to invasion and metastasis,"[7]; all three tumor lines, treated vs control tumors",causing the stronger increases
same,TIMP3 expression,[7]; three tumor lines,strongly increased
same,Expression of genes related to signal transduction molecules and transcription factors,"[7]; three tumor lines, treated vs control tumors",caused considerable increases or decreases in some
same,Expression of apoptosis-associated genes,"[7]; three tumors, Cancer Pathway Finder array",variable in the three tumors after both treatments
same,Expression of anti-apoptotic genes,Panc-1 cancers [8],mostly increased
same,Expression of pro-apoptotic genes,Panc-1 cancers [8]; several genes,increased
same,Expression of anti-apoptotic genes,SW-1990 tumors [9],mostly increased
same,Expression of pro-apoptotic genes,SW-1990 tumors [9]; several genes,changed in both directions
same,Expression of anti-apoptotic genes,CFPAC-1 cancers [10],decreased
same,Expression of pro-apoptotic genes,CFPAC-1 cancers [10]; several genes,decreased
same,Tumor volume (in words),"CFPAC-1 cancers [11]; iv days 1, 5, 8, 12, 15 and 30",moderate but not significant decrease
same,Tumor volume (final),"CFPAC-1 cancers [11]; iv days 1, 5, 8, 12, 15 and 30, 8 animals/group, day 61, means ± SE, control 2502±769, AN-152 P<0.05 vs. control",1063±518 mm3
Nc1ccn([C@@H]2O[C@H](CO)[C@@H](O)C2(F)F)c(=O)n1 [gemcitabine],Clinical efficacy,"[12]; gemcitabine alone or in combination with 5-fluorouracil, radiation or erlotinib, advanced pancreatic cancers",minimal palliation
D-Trp^6LH-RH,Cystic/solid tumor (weight ratio),"SW-1990 cancers; SW-1990, 6.9 μmol/kg iv once weekly for 7 weeks, 10 animals/group, day 65, means ± SE, control 1.56±0.12, AN-152 P<0.05 vs. all other groups",1.56±0.11
same,Tumor volume (final),SW-1990 cancers; [15],2791±646 mm3
same,"Tumor weights, tumors with cysts",SW-1990 cancers; [15],3107 ± 696 mg
same,"Tumor weights, solid tumor part",SW-1990 cancers; [15],1862 ± 361 mg
same,Growth inhibition of nitrosamine-induced pancreatic cancers,[13],inhibits growth
FOLFIRINOX,Toxicity,"[12]; human, in vivo",highly toxic
LH-RH: hypothalamic peptide hormone,Affinity of binding sites for LH-RH,[14],moderate-affinity
cetrorelix,Growth inhibition of nitrosamine-induced pancreatic cancers,[13],inhibits growth
